According to ChEMBL document CHEMBL5465560, “Selectivity Literature for EUbOPEN Chemogenomic Library” (2024):
Values belong to the compound of their own block, whether it stands above or below them.

Experiments:
[1] = target: Serine/threonine-protein kinase pim-3 (Homo sapiens) (UniProt Q86V86); experiment: Selectivity interaction (Ambit KINOMEscan and KiNATiv profiling in Jurkat cells) EUB0000090b PIM3; assay type: cell-based; conditions: at 1 µM
[2] = target: T1, Serine/threonine-protein kinase NLK (Homo sapiens) (UniProt Q9UBE8); experiment: Selectivity interaction (KinomeScan (DiscoverX)) EUB0000655a NLK; conditions: at 10 µM
T1 sequence (whole entry): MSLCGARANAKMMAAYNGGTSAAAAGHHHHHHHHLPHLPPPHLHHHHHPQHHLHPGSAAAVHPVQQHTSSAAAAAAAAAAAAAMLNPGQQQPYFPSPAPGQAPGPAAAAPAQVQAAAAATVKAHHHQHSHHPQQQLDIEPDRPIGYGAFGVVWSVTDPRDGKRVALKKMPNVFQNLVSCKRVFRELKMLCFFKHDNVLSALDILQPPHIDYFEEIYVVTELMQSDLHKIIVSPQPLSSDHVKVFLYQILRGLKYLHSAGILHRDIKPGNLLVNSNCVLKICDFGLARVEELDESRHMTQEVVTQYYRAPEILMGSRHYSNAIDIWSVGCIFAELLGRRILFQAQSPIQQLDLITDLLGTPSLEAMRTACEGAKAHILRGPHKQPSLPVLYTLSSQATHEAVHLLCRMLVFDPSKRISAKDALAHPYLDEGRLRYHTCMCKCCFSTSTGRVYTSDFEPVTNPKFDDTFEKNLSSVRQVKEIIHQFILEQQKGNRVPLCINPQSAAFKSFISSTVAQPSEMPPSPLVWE

[3] = target: Tyrosine-protein kinase Lyn (Homo sapiens, UniProt P07948); experiment: Selectivity interaction (SelectScreen profiling (Invitrogen)) EUB0000607a LYN; conditions: at 2 µM
Sequence of Tyrosine-protein kinase Lyn (P07948 2-512 limits assumed): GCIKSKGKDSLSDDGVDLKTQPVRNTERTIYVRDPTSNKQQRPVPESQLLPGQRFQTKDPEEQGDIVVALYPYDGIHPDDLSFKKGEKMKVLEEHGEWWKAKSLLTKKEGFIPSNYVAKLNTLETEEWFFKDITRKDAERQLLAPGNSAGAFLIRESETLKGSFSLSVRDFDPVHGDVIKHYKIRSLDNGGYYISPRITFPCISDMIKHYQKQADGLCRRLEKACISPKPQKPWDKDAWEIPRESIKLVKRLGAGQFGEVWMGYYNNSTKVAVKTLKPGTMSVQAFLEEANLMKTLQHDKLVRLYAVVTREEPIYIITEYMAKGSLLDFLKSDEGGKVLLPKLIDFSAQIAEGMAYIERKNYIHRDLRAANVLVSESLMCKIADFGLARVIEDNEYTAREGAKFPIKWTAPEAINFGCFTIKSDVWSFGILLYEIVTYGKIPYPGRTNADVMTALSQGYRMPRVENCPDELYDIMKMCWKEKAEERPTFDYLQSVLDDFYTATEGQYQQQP

[4] = target: T2, Phosphatidylinositol 4,5-bisphosphate 3-kinase catalytic subunit delta isoform (Homo sapiens) (UniProt O00329); experiment: Selectivity interaction (ActivX KiNativ screen (kinase selectivity in THP-1 cell lysates)) EUB0000639a PIK3CD; assay type: subcellular; conditions: lysate, at 0.01 µM
T2 sequence (whole entry): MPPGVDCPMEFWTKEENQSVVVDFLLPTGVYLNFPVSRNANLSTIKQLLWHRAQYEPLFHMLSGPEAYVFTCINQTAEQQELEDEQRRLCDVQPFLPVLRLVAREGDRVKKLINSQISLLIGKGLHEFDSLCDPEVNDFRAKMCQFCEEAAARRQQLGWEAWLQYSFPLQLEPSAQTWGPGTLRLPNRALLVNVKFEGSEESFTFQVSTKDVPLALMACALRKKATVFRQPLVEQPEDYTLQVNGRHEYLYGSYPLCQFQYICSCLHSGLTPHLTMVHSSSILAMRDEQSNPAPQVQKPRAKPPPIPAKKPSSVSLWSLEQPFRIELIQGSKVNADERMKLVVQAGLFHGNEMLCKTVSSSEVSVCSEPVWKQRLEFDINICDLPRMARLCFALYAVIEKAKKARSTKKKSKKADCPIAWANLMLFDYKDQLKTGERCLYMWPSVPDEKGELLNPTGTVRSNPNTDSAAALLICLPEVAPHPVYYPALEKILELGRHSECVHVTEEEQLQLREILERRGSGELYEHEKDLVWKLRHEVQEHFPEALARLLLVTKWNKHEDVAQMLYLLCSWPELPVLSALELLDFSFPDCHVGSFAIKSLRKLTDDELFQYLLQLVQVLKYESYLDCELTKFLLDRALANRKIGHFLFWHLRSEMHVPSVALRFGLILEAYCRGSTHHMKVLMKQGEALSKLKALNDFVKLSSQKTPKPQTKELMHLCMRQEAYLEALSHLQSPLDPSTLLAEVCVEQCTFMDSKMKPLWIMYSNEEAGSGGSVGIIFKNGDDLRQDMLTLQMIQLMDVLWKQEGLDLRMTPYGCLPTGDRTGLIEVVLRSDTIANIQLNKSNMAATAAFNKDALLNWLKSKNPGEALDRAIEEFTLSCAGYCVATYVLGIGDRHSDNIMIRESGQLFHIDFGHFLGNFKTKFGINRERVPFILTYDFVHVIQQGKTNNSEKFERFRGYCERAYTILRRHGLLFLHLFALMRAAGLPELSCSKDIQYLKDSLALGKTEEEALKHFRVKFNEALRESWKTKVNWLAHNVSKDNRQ

[5] = target: T3, RNA 5'-monophosphate methyltransferase (Homo sapiens) (UniProt Q7Z5W3); experiment: Selectivity interaction (Transferase panel (protein, RNA, and DNA methyltransferases. and EP300 (acetyltransferase))) EUB0000270b BCDIN3D
T3 sequence (whole entry): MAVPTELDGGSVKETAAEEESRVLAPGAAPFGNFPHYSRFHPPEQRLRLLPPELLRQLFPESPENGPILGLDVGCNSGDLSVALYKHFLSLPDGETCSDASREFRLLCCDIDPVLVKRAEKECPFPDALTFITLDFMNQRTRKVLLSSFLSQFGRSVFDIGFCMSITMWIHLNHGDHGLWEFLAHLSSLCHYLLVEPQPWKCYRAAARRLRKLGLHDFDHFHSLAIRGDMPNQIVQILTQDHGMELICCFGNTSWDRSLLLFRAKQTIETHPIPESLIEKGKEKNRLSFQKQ

[6] = target: T4, 5-hydroxytryptamine receptor 3A (Homo sapiens) (UniProt P46098); experiment: Selectivity interaction (Panel of kinases, GPCRs, ion channels and transporters (enzymatic assay)) EUB0000266bCl HTR3A
T4 sequence (whole entry): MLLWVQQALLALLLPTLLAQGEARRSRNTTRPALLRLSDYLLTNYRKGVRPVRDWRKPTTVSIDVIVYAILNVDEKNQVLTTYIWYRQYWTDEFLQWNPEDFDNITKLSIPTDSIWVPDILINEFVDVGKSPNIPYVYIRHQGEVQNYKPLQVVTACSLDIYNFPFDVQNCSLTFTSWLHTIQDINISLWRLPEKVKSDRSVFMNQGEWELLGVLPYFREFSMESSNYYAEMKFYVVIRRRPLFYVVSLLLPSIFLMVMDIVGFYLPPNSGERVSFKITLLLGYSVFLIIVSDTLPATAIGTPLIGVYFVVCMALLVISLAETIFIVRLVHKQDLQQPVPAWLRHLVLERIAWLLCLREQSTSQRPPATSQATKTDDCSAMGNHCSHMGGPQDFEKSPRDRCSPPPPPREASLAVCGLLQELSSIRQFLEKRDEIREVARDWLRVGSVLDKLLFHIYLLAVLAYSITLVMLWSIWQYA

SMILES: CN(C)C/C=C/C(=O)Nc1ccc(C(=O)N2CCCC(Nc3ncc(Cl)c(-c4c[nH]c5ccccc45)n3)C2)cc1 (configuration not stated)
% of control [1]: 99%

SMILES: CN(C)CCOc1ccc(-c2nc(-c3ccncc3)c(-c3ccc4c(c3)CC/C4=N\O)[nH]2)cc1
% of control [2]: 90%

SMILES: CNC(=O)Nc1ccc(-c2nc(N3CC4CCC(C3)O4)c3cnn(C4CCC5(CC4)OCCO5)c3n2)cc1
% of inhibition [3]: 7%

% of inhibition [4]: -9.6%
SMILES: CC[C@@H]1[C@H](F)C(=O)N[C@@H]1COc1nccc2cc(C(N)=O)c(OC)cc12 [ZIMLOVISERTIB]

% activity ([5]; at 1 µM): > 90%
% activity ([5]; at 10 µM): > 80%
SMILES: Cc1cc(CN)cc(C)c1-c1ncn(C)c1-c1cncn1C

pXC50 [6]: 5.6 M
SMILES: CCn1c(-c2nc3cc(C(=O)N4CCCC(N)C4)ccc3n2C)cc2ccccc21 (configuration not stated)
